From patent publication US6353016B1, “Potassium channel activators” (Nippon Shinyaku Co., Ltd., priority 1998, dated 2002)

Key:
[1] = tested on: isolated guinea-pig trachea specimen; test: Effect on the KCl-induced contraction of the isolated guinea-pig trachea specimen; format: cell-based
Protocol: Effect on the KCl-induced contraction of the isolated guinea-pig trachea specimen
As in Experimental Example 1, potassium channel activating activity was evaluated by comparing the relaxing effects of the test drug on 20 mM KCl-induced contraction and 100 mM KCl-induced contraction.
Male 5-13-week-old Hartley guinea pigs (body weights 400-730 g) were used in groups of 2-4. After the animal was bled to death under ether anesthesia, the trachea was isolated and 4 tracheal strips were connected to prepare a specimen in accordance with the method of Takagi et al. (Chem. Pharm. Bull., 6, 716-720 (1958)). The experiment was performed in the same manner as described in Experimental Example 1.

[2] = tested on: isolated rat aorta specimen; test: Effect on KCl-induced contraction of the isolated rat aorta specimen; format: cell-based; conditions: papaverine (100 μM) = 100% relaxation
Protocol: Effect on KCl-induced contraction of the isolated rat aorta specimen
In the present experiment, potassium channel activating activity was evaluated by comparing the pIC50 values representing the relaxing effects of the test drug on the 20 mM KCl-induced contraction and 100 mM KCl-contraction. According to Br. J. Pharmacol., 88, 103-111 (1986) referred to above, potassium channel activators produce greater relaxing effects on 20 mM KCl-induced contraction than on 100 mM KCl-induced contraction.
Male 7-13-week-old SD rats (body weights 240-480 g) were used in groups of 4-6. After the animal was bled to death under ether anesthesia, the throacic aorta was isolated and dissected into a spiral specimen about 2 mm wide×about 20 mm long. Each specimen was suspended in a 10 ml Magnus bath containing Krebs-Henseleit solution (KH solution) aerated with 95% O2+5% CO2 at 37° C. A tension load of 1 g was applied and with the KH solution exchanged every 20 minutes, the specimen was equilibrated for about 90 minutes. Then, the experiment was commenced. The change in tension of the specimen was recorded on a recticorder through an isometric tension transducer. The specimen was caused to contract by replacing the KH solution in the Magnus bath with 20 mM or 100 mM KCl-containing KH solution (NaCl in KH solution was replaced with an equimolar amount of KCl) and when the contractile response had reached plateau, the test drug was cumulatively applied to evaluate the relaxing effect.
Each result was expressed in the average of the relaxation ratio obtained in the presence of the test drug, with the maximum relaxation found with papaverine (100 μM) being taken as the 100% relaxation response of the specimen.

[3] = tested on: blood pressure in anesthetized rats; test: Effect on blood pressure in anesthetized rats; format: in vivo, rat; conditions: 100 mg/kg intraduodenally; urethane-anesthetized female SD rats; % change at time of maximal action, up to 3 hours
Protocol: Effect on blood pressure in anesthetized rats
Female 10-13-week-old SD rats (body weights 180-300 g) fasted from the previous day were used in groups of 2-4. The animal was placed in supine position under urethane anesthesia and the femoral artery was cannulated for blood pressure measurement. The blood pressure was recorded on a recorder through the cannula and a pressure transducer. When the blood pressure had stabilized, the test drug was administered intraduodenally and the effect on blood pressure was monitored up to 3 hours after administration.
Each value is expressed as the average of % changes at the time of maximal action.

With `N#Cc1cc(-c2ccc3c(c2)OCO3)[nH]c1N` [Compound 5, 2-Amino-3-cyano-5-(3,4-methylenedioxyphenyl)pyrrole] the “Relaxation effect (%) 20 mM KCl-induced contraction” value ([1]; 10 μM) was 58%, the “Relaxation effect (%) 100 mM KCl-induced contraction” value ([1]; 10 μM) was −7% and the “Relaxation effect (%) 20 mM KCl-induced contraction” value ([2]; 10 μM) was 73%. The “Relaxation effect (%) 100 mM KCl-induced contraction” value ([2]; 10 μM) was 18%.
`Cc1c(-c2ccco2)[nH]c(N)c1C#N` [Compound 4, 2-Amino-3-cyano-5-(2-furyl)-4-methylpyrrole] was tested, and the “Hypotensive effect (%)” value [3] was 25.6%, the “Relaxation effect (%) 20 mM KCl-induced contraction” value ([2]; 10 μM) was 64% and the “Relaxation effect (%) 100 mM KCl-induced contraction” value ([2]; 10 μM) was 12%.
For `N#Cc1cc(-c2ccc(F)cc2F)[nH]c1N` [Compound 6, 2-Amino-3-cyano-5-(2,4-difluorophenyl)pyrrole], the “Relaxation effect (%) 20 mM KCl-induced contraction” value ([2]; 10 μM) was 92% and the “Relaxation effect (%) 100 mM KCl-induced contraction” value ([2]; 10 μM) was 24%.
`Cc1c(-c2ccccc2)[nH]c(N)c1C#N` [Compound 2, 2-Amino-3-cyano-4-methyl-5-phenylpyrrole] was tested, and the “Hypotensive effect (%)” value [3] was 25.9%, the “Relaxation effect (%) 20 mM KCl-induced contraction” value ([2]; 10 μM) was 78% and the “Relaxation effect (%) 100 mM KCl-induced contraction” value ([2]; 10 μM) was 17%.
In the case of `Cc1c(-c2ccccc2F)[nH]c(N)c1C#N` [Compound 1, 2-Amino-3-cyano-5-(2-fluorophenyl)-4-methylpyrrole], the “Relaxation effect (%) 20 mM KCl-induced contraction” value ([2]; 10 μM) is reported as 82% and the “Relaxation effect (%) 100 mM KCl-induced contraction” value ([2]; 10 μM) is reported as 28%.
`Cc1c(-c2cccc(Cl)c2)[nH]c(N)c1C#N` [Compound 3, 2-Amino-5-(3-chlorophenyl)-3-cyano-4-methylpyrrole] was tested, and the “Hypotensive effect (%)” value [3] was 14.1%, the “Relaxation effect (%) 20 mM KCl-induced contraction” value ([2]; 1 μM) was 45% and the “Relaxation effect (%) 100 mM KCl-induced contraction” value ([2]; 1 μM) was 6%.
With `N#Cc1cc(-c2ccc3c(c2)OCO3)[nH]c1N1CCCC1` [Compound 11, 3-Cyano-5-(3,4-methylenedioxyphenyl)-2-pyrrolidinopyrrole] the “Relaxation effect (%) 20 mM KCl-induced contraction” value ([1]; 10 μM) was 37% and the “Relaxation effect (%) 100 mM KCl-induced contraction” value ([1]; 10 μM) was 4%.
In the case of `Cc1[nH]c(-c2ccccc2)c(C)c1C#N` [Compound 9, 3-Cyano-2,4-dimethyl-5-phenylpyrrole], the “Relaxation effect (%) 20 mM KCl-induced contraction” value ([1]; 10 μM) is reported as 79% and the “Relaxation effect (%) 100 mM KCl-induced contraction” value ([1]; 10 μM) is reported as 39%.
For `Cc1c(-c2cccc([N+](=O)[O-])c2)[nH]c(N)c1C#N` [Compound 8, 2-Amino-3-cyano-4-methyl-5-(3-nitrophenyl)pyrrole], the “Relaxation effect (%) 20 mM KCl-induced contraction” value ([1]; 3 μM) was 58% and the “Relaxation effect (%) 100 mM KCl-induced contraction” value ([1]; 3 μM) was −2%.
`CCOc1cccc(-c2cc(C#N)c(N3CCCC3)[nH]2)c1` [Compound 10, 3-Cyano-5-(3-ethoxyphenyl)-2-pyrrolidinopyrrole] was tested, and the “Relaxation effect (%) 20 mM KCl-induced contraction” value ([1]; 3 μM) was 37% and the “Relaxation effect (%) 100 mM KCl-induced contraction” value ([1]; 3 μM) was −15%.
With `Cc1[nH]c(-c2cccc(Cl)c2)cc1C#N` [Compound 7, 5-(3-Chlorophenyl)-3-cyano-2-methylpyrrole] the “Relaxation effect (%) 20 mM KCl-induced contraction” value ([1]; 3 μM) was 64% and the “Relaxation effect (%) 100 mM KCl-induced contraction” value ([1]; 3 μM) was 31%.
